{
  "source": "patent US10844077B2",
  "about": "“Thiazolyl-containing compounds for treating proliferative diseases” (Dana-Farber Cancer Institute, Inc., priority 2014, dated 2020)",
  "key": {"[1]": {"molecular_target": "NDR1 (Homo sapiens (Human), UniProt Q15208)", "sequence (Q15208 whole entry)": "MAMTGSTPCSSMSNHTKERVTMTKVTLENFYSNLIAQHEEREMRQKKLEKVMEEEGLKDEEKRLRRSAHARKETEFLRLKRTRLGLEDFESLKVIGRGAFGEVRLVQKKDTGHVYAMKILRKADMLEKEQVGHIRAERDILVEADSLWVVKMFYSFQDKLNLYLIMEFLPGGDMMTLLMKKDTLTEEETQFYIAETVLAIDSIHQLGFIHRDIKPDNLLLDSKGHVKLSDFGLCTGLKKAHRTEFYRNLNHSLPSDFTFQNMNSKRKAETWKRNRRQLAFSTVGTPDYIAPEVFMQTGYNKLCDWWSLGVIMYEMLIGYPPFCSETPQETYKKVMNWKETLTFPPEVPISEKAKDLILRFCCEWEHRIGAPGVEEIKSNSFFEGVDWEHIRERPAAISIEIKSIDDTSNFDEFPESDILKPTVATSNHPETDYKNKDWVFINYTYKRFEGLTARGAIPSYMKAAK", "assay": "KINATIV assay", "assay_type": "cell-based", "conditions": "1 μM, 90 minutes, BCWM.1 cells", "in_short": "(§1)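 Readout is ACTIVX identification and quantitation of kinases captured by an ATP-biotin probe. Lysates from harvested cells were labeled directly with the probe, and each compound was tested in duplicate alongside duplicate or quadruplicate control samples.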"}, "[2]": {"molecular_target": "kinases in BCWM.1 cells (Homo sapiens, UniProt Q96GX5)", "assay": "KINATIV assay of compounds I-3 and I-9, lysate directly labeled with ATP-biotin probe (no GF)", "assay_type": "cell-based", "conditions": "MASTL, 1 μM, no GF", "protocol": "(§2) The cells were harvested and lysed. […] Bound kinases were identified and quantitated by ACTIVX as described in Patricelli et al., Biochemistry, 2007, 46(2): 350-358. The compounds were tested in duplicates against duplicate or quadruplicate control samples."}, "[3]": {"molecular_target": "kinases in BCWM.1 cells (Homo sapiens, UniProt Q13164)", "assay": "KINATIV assay of compounds I-3 and I-9, lysate directly labeled with ATP-biotin probe (no GF)", "assay_type": "cell-based", "conditions": "Erk5; Lys2; 1 μM; no GF", "protocol": "as §2"}, "[4]": {"molecular_target": "kinases in BCWM.1 cells (Homo sapiens, UniProt P42685)", "assay": "KINATIV assay of compounds I-3 and I-9, lysate directly labeled with ATP-biotin probe (no GF)", "assay_type": "cell-based", "conditions": "FRK; Activation Loop; 1 μM; no GF", "protocol": "as §2"}, "[5]": {"molecular_target": "kinases in BCWM.1 cells (Homo sapiens, UniProt P78368)", "assay": "KINATIV assay of compounds I-3 and I-9, lysate directly labeled with ATP-biotin probe (no GF)", "assay_type": "cell-based", "conditions": "CK1g2; Lys2; 1 μM; no GF", "protocol": "as §2"}, "[6]": {"molecular_target": "kinases in BCWM.1 cells (Homo sapiens, UniProt P07948)", "assay": "KINATIV assay of compounds I-3 and I-9, lysate directly labeled with ATP-biotin probe (no GF)", "assay_type": "cell-based", "conditions": "LYN; Lys1; 1 μM; no GF", "protocol": "as §2"}, "[7]": {"molecular_target": "kinases in BCWM.1 cells (Homo sapiens, UniProt Q14680)", "assay": "KINATIV assay of compounds I-3 and I-9, lysate directly labeled with ATP-biotin probe (no GF)", "assay_type": "cell-based", "conditions": "MELK; Lys2; 1 μM; no GF", "protocol": "as §2"}, "[8]": {"molecular_target": "kinases in BCWM.1 cells (Homo sapiens, UniProt Q13233)", "sequence (Q13233 2-1512 limits assumed)": "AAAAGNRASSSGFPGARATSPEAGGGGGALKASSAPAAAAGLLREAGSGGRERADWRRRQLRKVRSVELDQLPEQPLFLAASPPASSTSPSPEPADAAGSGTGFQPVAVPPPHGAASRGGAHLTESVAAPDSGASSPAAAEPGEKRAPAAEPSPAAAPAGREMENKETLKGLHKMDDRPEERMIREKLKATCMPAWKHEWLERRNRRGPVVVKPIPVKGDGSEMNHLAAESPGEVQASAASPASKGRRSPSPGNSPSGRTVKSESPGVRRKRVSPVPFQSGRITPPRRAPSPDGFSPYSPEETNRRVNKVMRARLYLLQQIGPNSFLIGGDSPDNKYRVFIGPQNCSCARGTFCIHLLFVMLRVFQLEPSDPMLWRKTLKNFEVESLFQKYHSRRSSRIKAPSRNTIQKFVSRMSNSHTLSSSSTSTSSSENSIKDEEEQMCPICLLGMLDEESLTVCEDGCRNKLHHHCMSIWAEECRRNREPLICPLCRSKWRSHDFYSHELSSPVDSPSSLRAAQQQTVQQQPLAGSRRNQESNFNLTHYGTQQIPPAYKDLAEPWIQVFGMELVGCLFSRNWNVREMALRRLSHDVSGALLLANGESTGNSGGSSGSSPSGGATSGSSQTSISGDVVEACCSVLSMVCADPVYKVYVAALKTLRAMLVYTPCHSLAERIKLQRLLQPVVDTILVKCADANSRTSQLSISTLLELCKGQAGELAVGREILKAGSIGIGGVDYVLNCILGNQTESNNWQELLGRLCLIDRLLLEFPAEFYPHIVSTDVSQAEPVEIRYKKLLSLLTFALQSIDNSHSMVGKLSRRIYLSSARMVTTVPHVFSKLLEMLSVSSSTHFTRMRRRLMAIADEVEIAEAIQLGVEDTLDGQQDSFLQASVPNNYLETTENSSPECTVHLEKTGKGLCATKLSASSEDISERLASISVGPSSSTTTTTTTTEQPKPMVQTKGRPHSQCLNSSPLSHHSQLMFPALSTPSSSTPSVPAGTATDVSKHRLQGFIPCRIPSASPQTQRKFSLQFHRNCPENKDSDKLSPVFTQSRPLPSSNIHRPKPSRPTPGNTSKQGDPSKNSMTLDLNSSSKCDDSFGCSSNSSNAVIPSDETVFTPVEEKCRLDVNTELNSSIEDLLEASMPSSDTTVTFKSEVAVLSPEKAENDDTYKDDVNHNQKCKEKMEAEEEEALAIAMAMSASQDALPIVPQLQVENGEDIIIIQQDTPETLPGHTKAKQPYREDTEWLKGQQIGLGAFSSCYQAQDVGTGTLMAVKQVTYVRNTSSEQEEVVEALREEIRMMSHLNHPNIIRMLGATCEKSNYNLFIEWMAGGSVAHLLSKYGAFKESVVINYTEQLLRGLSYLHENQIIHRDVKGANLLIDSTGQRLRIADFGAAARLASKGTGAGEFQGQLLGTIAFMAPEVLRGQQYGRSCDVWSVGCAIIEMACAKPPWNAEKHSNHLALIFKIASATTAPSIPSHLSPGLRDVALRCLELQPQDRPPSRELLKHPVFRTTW", "assay": "KINATIV assay of compounds I-3 and I-9, lysate directly labeled with ATP-biotin probe (no GF)", "assay_type": "cell-based", "conditions": "MAP3K1; Lys2; 1 μM; no GF", "protocol": "as §2"}, "[9]": {"molecular_target": "kinases in BCWM.1 cells (Homo sapiens, UniProt O14965)", "assay": "KINATIV assay of compounds I-3 and I-9, lysate directly labeled with ATP-biotin probe (no GF)", "assay_type": "cell-based", "protocol": "as §2"}, "[10]": {"molecular_target": "kinases in BCWM.1 cells (Homo sapiens, UniProt P41240)", "sequence (P41240 2-450 limits assumed)": "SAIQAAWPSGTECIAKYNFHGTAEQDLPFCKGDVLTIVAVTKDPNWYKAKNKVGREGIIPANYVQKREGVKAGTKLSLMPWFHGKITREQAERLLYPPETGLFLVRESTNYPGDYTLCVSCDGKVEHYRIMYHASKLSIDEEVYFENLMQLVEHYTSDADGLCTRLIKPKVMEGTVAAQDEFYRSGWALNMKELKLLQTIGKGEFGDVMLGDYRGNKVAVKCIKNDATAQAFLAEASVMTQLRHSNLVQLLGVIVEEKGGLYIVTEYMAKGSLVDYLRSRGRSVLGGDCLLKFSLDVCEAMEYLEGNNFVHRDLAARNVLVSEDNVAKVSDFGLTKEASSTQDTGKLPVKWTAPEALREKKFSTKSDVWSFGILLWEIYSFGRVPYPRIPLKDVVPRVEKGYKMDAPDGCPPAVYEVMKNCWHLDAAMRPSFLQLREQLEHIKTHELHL", "assay": "KINATIV assay of compounds I-3 and I-9, lysate directly labeled with ATP-biotin probe (no GF)", "assay_type": "cell-based", "conditions": "CSK; Activation Loop; 1 μM; no GF", "protocol": "as §2"}, "[11]": {"molecular_target": "PFTAIRE1 (Homo sapiens (Human), UniProt O94921)", "sequence (O94921 whole entry, looked up)": "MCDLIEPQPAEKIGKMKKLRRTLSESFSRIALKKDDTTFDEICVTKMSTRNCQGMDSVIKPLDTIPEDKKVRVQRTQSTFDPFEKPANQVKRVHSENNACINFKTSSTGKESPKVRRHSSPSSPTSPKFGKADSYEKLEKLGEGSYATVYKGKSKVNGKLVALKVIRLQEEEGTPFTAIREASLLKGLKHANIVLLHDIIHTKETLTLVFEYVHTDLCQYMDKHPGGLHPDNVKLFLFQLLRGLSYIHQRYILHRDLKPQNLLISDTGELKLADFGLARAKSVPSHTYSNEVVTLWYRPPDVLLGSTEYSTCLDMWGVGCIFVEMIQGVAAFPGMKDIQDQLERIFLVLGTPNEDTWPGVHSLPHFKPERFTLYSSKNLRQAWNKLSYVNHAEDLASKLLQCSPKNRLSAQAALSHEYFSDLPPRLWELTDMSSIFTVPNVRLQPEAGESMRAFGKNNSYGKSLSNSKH", "protocol": "The cells were harvested and lysed. The lysates were directly labeled with an ATP-biotin probe. Bound kinases were identified and quantitated by ACTIVX as described in Patricelli et al., Biochemistry, 2007, 46(2): 350-358. The compounds were tested in duplicates against duplicate or quadruplicate control samples."}, "[12]": {"molecular_target": "JAK3 domain2 (Homo sapiens (Human), UniProt P52333)", "assay": "KINATIV assay", "assay_type": "cell-based", "conditions": "1 μM, 90 minutes, BCWM.1 cells", "in_short": "as §1"}, "[13]": {"molecular_target": "CDK7 (Homo sapiens (Human), UniProt P50613)", "sequence (P50613 2-346)": "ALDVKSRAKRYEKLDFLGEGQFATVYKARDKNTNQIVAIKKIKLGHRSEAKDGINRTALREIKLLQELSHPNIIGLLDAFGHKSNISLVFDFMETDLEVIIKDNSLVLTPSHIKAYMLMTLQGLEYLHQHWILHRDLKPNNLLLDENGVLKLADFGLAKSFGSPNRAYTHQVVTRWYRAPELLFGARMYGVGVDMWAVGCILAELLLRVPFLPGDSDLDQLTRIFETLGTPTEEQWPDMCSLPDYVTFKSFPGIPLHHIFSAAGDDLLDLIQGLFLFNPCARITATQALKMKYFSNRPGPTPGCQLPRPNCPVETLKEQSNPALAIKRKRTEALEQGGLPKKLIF", "sequence (P51946 whole entry partner)": "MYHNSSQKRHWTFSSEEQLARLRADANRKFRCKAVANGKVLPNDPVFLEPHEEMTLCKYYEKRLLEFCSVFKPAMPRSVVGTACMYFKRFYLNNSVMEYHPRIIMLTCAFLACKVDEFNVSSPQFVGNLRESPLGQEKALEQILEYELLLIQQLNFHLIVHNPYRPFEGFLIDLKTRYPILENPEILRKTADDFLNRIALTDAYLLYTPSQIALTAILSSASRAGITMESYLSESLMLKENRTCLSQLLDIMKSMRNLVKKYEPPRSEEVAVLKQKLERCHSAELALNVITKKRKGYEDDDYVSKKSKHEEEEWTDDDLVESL", "sequence (P51948 whole entry partner)": "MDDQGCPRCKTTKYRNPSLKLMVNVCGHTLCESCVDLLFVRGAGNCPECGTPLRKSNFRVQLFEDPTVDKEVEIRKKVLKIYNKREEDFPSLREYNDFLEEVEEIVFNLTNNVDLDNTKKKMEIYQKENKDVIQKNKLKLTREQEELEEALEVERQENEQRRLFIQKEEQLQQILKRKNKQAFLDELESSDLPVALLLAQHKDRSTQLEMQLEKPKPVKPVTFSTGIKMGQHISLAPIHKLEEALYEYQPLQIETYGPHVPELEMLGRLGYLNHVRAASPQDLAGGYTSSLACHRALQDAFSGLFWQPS", "assay": "KINATIV assay", "assay_type": "cell-based", "conditions": "1 μM, 90 minutes, BCWM.1 cells", "in_short": "as §1"}, "[14]": {"molecular_target": "DNAPK (Homo sapiens (Human), UniProt P78527)", "assay": "KINATIV assay", "assay_type": "cell-based", "conditions": "1 μM, 90 minutes, BCWM.1 cells", "in_short": "as §1"}, "[15]": {"molecular_target": "IKKb (Homo sapiens (Human), UniProt O14920)", "sequence (O14920 whole entry)": "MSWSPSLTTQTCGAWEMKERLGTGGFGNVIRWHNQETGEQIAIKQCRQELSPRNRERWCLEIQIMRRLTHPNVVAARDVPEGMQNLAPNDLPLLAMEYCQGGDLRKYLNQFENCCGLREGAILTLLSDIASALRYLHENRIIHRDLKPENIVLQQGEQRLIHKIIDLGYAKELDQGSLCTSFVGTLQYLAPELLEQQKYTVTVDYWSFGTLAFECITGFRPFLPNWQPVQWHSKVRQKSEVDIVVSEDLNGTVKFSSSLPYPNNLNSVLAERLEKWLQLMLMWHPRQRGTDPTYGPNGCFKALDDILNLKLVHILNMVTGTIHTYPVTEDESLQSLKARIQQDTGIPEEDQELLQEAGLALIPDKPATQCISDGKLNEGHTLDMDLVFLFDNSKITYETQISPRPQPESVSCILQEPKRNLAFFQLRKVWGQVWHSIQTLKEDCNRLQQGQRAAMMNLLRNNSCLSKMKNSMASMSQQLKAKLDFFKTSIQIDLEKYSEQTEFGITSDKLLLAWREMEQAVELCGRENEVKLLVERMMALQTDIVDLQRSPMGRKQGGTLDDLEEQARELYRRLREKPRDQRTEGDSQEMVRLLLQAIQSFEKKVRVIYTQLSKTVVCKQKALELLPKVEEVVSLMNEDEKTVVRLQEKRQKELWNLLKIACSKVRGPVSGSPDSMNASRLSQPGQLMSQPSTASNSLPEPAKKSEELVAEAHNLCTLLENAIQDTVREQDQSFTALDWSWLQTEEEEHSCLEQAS", "assay": "KINATIV assay", "assay_type": "cell-based", "conditions": "1 μM, 90 minutes, BCWM.1 cells", "in_short": "as §1"}, "[16]": {"molecular_target": "p38a (Homo sapiens (Human), UniProt Q16539)", "sequence (Q16539 whole entry)": "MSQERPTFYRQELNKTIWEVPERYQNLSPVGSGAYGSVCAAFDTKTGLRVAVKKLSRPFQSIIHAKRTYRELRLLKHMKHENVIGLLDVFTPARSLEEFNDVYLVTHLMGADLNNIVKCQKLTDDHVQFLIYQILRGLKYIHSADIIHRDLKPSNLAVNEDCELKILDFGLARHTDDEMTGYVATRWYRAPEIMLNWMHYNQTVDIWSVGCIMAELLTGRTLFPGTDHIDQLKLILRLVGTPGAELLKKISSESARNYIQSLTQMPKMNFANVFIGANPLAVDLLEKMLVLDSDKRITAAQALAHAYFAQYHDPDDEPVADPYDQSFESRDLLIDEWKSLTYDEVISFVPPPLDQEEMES", "assay": "KINATIV assay", "assay_type": "cell-based", "conditions": "1 μM, 90 minutes, BCWM.1 cells", "in_short": "as §1"}, "[17]": {"test_system": "MAP2K1, MAP2K2", "assay": "KINATIV assay", "assay_type": "cell-based", "conditions": "1 μM, 90 minutes, BCWM.1 cells", "in_short": "as §1"}, "[18]": {"molecular_target": "kinases in BCWM.1 cells (Homo sapiens, UniProt Q16513)", "assay": "KINATIV assay of compounds I-3 and I-9, lysate directly labeled with ATP-biotin probe (no GF)", "assay_type": "cell-based", "conditions": "PKN2; Lys2; 1 μM, 90 min; no GF", "protocol": "as §2"}, "[19]": {"molecular_target": "kinases in BCWM.1 cells (Homo sapiens, UniProt O00506)", "assay": "KINATIV assay of compounds I-3 and I-9, lysate directly labeled with ATP-biotin probe (no GF)", "assay_type": "cell-based", "conditions": "YSK1; Lys1; 1 μM, 90 min; no GF", "protocol": "as §2"}, "[20]": {"molecular_target": "SLK (Homo sapiens (Human), UniProt Q9H2G2)", "assay": "KINATIV assay", "assay_type": "cell-based", "conditions": "1 μM, 90 minutes, BCWM.1 cells", "in_short": "as §1"}, "[21]": {"test_system": "MWCL-1", "assay": "CellTiter-Glo Luminescent cell viability assay", "assay_type": "cell-based", "conditions": "cell survival, 72 hours", "protocol": "(§3) The inhibitory activities of exemplary compounds described herein against select protein kinases and cells were determined. Cell survival following treatment of exemplary compounds described herein was assessed by CellTiter-Glo® Luminescent cell viability assay (Promega). The cells were seeded into 384 well plates with the EL406 Combination Washer Dispenser (BioTek Instruments, Inc.), and a series diluted exemplary compounds (20˜0.0006 μM) were injected into the culture media with the JANUS Automated Workstation (PerkinElmer Inc.). The cells were treated for 72 hours at 37° C. with 5% CO2. Luminescent measurement is performed using the 2104 Envision® Multilabel Reader (PerkinElmer Inc.). EC50 values were calculated with […] PRISM software."}, "[22]": {"test_system": "BCWM.1", "assay": "CellTiter-Glo Luminescent cell viability assay", "assay_type": "cell-based", "conditions": "cell survival, 72 hours", "protocol": "as §3"}, "[23]": {"test_system": "HBL-1", "assay": "CellTiter-Glo Luminescent cell viability assay", "assay_type": "cell-based", "conditions": "cell survival, 72 hours", "protocol": "as §3"}, "[24]": {"test_system": "OCI-Ly19", "assay": "CellTiter-Glo Luminescent cell viability assay", "assay_type": "cell-based", "conditions": "cell survival, 72 hours", "protocol": "as §3"}, "[25]": {"test_system": "TMD-8", "assay": "CellTiter-Glo Luminescent cell viability assay", "assay_type": "cell-based", "conditions": "cell survival, 72 hours", "protocol": "as §3"}, "[26]": {"test_system": "Ramos", "assay": "CellTiter-Glo Luminescent cell viability assay", "assay_type": "cell-based", "conditions": "cell survival, 72 hours", "protocol": "as §3"}, "[27]": {"molecular_target": "BTK (Homo sapiens (Human), UniProt Q06187)", "assay": "BTK inhibitory activity", "assay_type": "biochemical"}},
  "note": "pEC50, pIC50: −log10 of the molar value. Values joined by “and” are separate entries in the source; they are usually repeats but may differ in a detail not shown here. Equal entries are not always repeated.",
  "data": [
    {"compound": "C=CC(=O)N1CCC(CNc2nccc(Nc3ncc(C(=O)Nc4c(C)cccc4C)s3)n2)C1", "note": "(racemic) [Example I-8]", "values": [
      {"measurement": "% change of MS signal compared to control sample", "setting": "[1]", "value": "−0.8% and 2.2%"}
    ]},
    {"compound": "C=CC(=O)N1CC[C@H](Nc2nccc(Nc3ncc(C(=O)Nc4c(C)cccc4C)s3)n2)C1", "note": "[Example I-3]", "values": [
      {"measurement": "% change of MS signal compared to control sample", "setting": "[2]; ATP Loop", "value": "5.3% and 6%"},
      {"measurement": "% change of MS signal compared to control sample", "setting": "[2]; Lys1", "value": "16.4% and 9.8%"},
      {"measurement": "% change of MS signal compared to control sample", "setting": "[3]", "value": "3% and 8.3%"},
      {"measurement": "% change of MS signal compared to control sample", "setting": "[4]", "value": "92.4% and 95.8%"},
      {"measurement": "% change of MS signal compared to control sample", "setting": "[5]", "value": "−3.7% and −4.5%"},
      {"measurement": "% change of MS signal compared to control sample", "setting": "[6]", "value": ">98", "unit": "%"},
      {"measurement": "% change of MS signal compared to control sample", "setting": "[7]", "value": "−12.1% and −10.6%"},
      {"measurement": "% change of MS signal compared to control sample", "setting": "[8]", "value": "22.5% and 18.8%"},
      {"measurement": "% change of MS signal compared to control sample", "setting": "[9]", "value": 12.7, "unit": "%"},
      {"measurement": "% change of MS signal compared to control sample", "setting": "[10]", "value": "36% and 60.3%"}
    ]},
    {"compound": "C=CC(=O)N1CC[C@@H](Nc2nccc(Nc3ncc(C(=O)Nc4c(C)cccc4C)s3)n2)C1", "note": "[Example I-4]", "values": [
      {"measurement": "% change of MS signal compared to control sample", "setting": "[11]", "value": "15.3% and 6.3%"},
      {"measurement": "% change of MS signal compared to control sample", "setting": "[12]", "value": "−30.8", "unit": "%"},
      {"measurement": "% change of MS signal compared to control sample", "setting": "[13]", "value": "21.6% and 16.8%"},
      {"measurement": "% change of MS signal compared to control sample", "setting": "[14]", "value": "−80.8", "unit": "%"},
      {"measurement": "% change of MS signal compared to control sample", "setting": "[15]", "value": "3.1% and 4.4%"}
    ]},
    {"compound": "C=CC(=O)N1CCCCC(Nc2nccc(Nc3ncc(C(=O)Nc4c(C)cccc4C)s3)n2)C1", "note": "(stereo not shown) [Example I-7]", "values": [
      {"measurement": "% change of MS signal compared to control sample", "setting": "[16]", "value": "69.8% and 51.2%"},
      {"measurement": "% change of MS signal compared to control sample", "setting": "[17]", "value": 7.4, "unit": "%"}
    ]},
    {"compound": "CCC(=O)N1CC[C@H](Nc2nccc(Nc3ncc(C(=O)Nc4c(C)cccc4C)s3)n2)C1", "note": "[Example I-9]", "values": [
      {"measurement": "% change of MS signal compared to control sample", "setting": "[18]", "value": "−4.5", "unit": "%"},
      {"measurement": "% change of MS signal compared to control sample", "setting": "[19]", "value": "−11.5", "unit": "%"}
    ]},
    {"compound": "C=CC(=O)N1CCC(Cn2ccc(Nc3ncc(C(=O)Nc4c(C)cccc4Cl)s3)n2)C1", "note": "(stereo not shown) [II-1]", "values": [
      {"measurement": "% change of MS signal compared to control sample", "setting": "[20]", "value": "0.0% and −3.6%"},
      {"measurement": "pEC50", "setting": "[21]", "value": 6.92},
      {"measurement": "pEC50", "setting": "[22]", "value": 7.08},
      {"measurement": "pEC50", "setting": "[23]", "value": 6.13},
      {"measurement": "pEC50", "setting": "[24]", "value": 5.10},
      {"measurement": "pEC50", "setting": "[25]", "value": 6.24},
      {"measurement": "pEC50", "setting": "[26]", "value": "< 4.70"},
      {"measurement": "pIC50", "setting": "[27]", "value": 8.96}
    ]}
  ]
}
